The results in this text go back to PubChem BioAssay (NCI).

Molecules are shown by their SMILES.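 Method: 48-hour compound exposure of cells in 96-well plates, five concentrations, linear interpolation of endpoints. The concentration for 50% growth inhibition is given as GI50. Definition used: TGI = concentration required for complete inhibition of growth.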

Assay in all cases: NCI anticancer screen, dose series, 48 h
The subject of assay [1] is NCI-H226 lung.
Assay [2] has as its system CCRF-CEM leukemia.
In assay [3] the test system is SF-295 CNS.
Assay [4] has as its system HL-60(TB) leukemia.
For assay [5], the system named is OVCAR-4 ovarian.
Assay [6] has as its system SN12C renal.
Assay [7] concerns SK-OV-3 ovarian.
The test system of assay [8] is COLO 205 colon.

With `CC(/C=C/C(=O)c1sc(-n2nc(-c3ccccc3)cc2-c2ccccc2)nc1C)=C\c1ccccc1`, the GI50 in assay [1], in assay [3] and in assay [5] was more than 100 µM in each case. The TGI in assay [1], in assay [2], in assay [3], in assay [4], in assay [5] and in assay [6] was more than 100 µM in each case. In addition, the TGI in assay [7] was more than 100 µM.

As to `CN(C)c1ncnc2c1Cc1ccccc1C(=O)N2C`, the TGI in assay [1], in assay [2], in assay [3], in assay [4], in assay [5] and in assay [6] was more than 100 µM throughout. For the same compound, the TGI in assay [7] and in assay [8] was more than 100 µM in each case.

Take `COc1ccc(/C=N/N=C(\N)NO)c(Cl)c1O`: the TGI in assay [1] is 38.6 µM; in assay [2], more than 100 µM; in assay [3] it was 22.4 µM; in assay [5] it was more than 100 µM; in assay [6] it was more than 100 µM; in assay [7], more than 100 µM. In assay [8], the TGI was more than 100 µM.

Turning to `C=CCCOC(=O)CO[N+](=O)[O-]`, the TGI in assay [1] was more than 100 µM; in assay [2], more than 100 µM; in assay [3] it was more than 100 µM; in assay [4] it was 70.1 µM; in assay [5], more than 100 µM; in assay [6], more than 100 µM. Further, the TGI in assay [7] and in assay [8] was more than 100 µM in each case.

As for `COc1cc(Br)c(CC2(C#N)c3ccccc3C3C(N2C(=O)c2ccccc2)C3(Cl)Cl)cc1OC` (stereo not given), the TGI in assay [1] was more than 65.5 µM; in assay [2] it was more than 65.5 µM; in assay [4], 30.2 µM; in assay [6], more than 65.5 µM; in assay [7], more than 65.5 µM; in assay [8], more than 65.5 µM.

With `CC(=O)[O-].CC(=O)[O-].O=C(N/N=C/c1cc(Cl)cc(Cl)c1O)c1ccncc1.[Ni+2]`, the TGI was more than 100 µM in assay [1]; more than 100 µM in assay [2]; 67.2 µM in assay [3]; 45.3 µM in assay [4]; more than 100 µM in assay [6]; more than 100 µM in assay [7]. Moreover, the TGI in assay [8] is more than 100 µM.

Take `COc1ccc(/C=C/C(=O)C(C)(C)CN2CCCCC2)cc1`: the TGI was determined as 45.9 µM in assay [1]; 60.6 µM in assay [2]; 97.5 µM in assay [3]; 37.9 µM in assay [4]; 22.1 µM in assay [5]; 44.1 µM in assay [6]. In addition, the TGI in assay [7] stood at 61.7 µM; in assay [8] it was 30.6 µM.

For the compound `CCOC(=O)Cc1nc2ccccc2s1`, the TGI in assay [1] is 49.2 µM; in assay [2] it was 72.8 µM; in assay [3], 32.2 µM; in assay [4], 43.9 µM; in assay [5] it was more than 10 µM; in assay [6], 30.5 µM. Further, the TGI in assay [7] and in assay [8] was more than 100 µM each time.

Regarding `C[N+](C)(C)CC(=O)N/N=C(\CCC(=O)NCCc1ccccc1)CC(=O)c1ccccc1`, the TGI in assay [1], in assay [2], in assay [3], in assay [4], in assay [5] and in assay [6] was more than 100 µM each time. In addition, the TGI in assay [7] and in assay [8] was more than 100 µM in each case.

Turning to `N#CC(/C(=N\NC(=O)c1ccncc1)C(=O)Nc1ccc([N+](=O)[O-])cc1[N+](=O)[O-])c1nc(-c2ccc(Br)cc2)cs1` (stereo not given), the TGI in assay [2], in assay [3], in assay [4], in assay [5], in assay [7] and in assay [8] was more than 100 µM throughout.

For `c1ccc(N=c2snc3scc(-c4ccccc4)n23)cc1`, the TGI in assay [1], in assay [2], in assay [3], in assay [4], in assay [5] and in assay [6] was more than 100 µM each time. In addition, the TGI in assay [7] is more than 100 µM; in assay [8], 80.6 µM.

In the case of `CCSC(SCC)c1cc2c(cc1Br)OCO2`, the TGI in assay [1] is 81.1 µM; in assay [2] it was 62.4 µM; in assay [3], 72.1 µM; in assay [4], 38 µM; in assay [5], more than 100 µM; in assay [6], more than 100 µM. Besides, the TGI turned out to be 88.6 µM in assay [7] and 59.3 µM in assay [8].

Take `CSc1nc(NC2OCC(OC(C)=O)C(OC(C)=O)C2OC(C)=O)c(N=C(C)C(C)=O)c(=O)n1C` (stereo not given): the TGI in assay [1], in assay [2], in assay [3], in assay [4], in assay [5] and in assay [6] was more than 100 µM each time. Moreover, the TGI in assay [7] and in assay [8] was more than 100 µM each time.

For the compound `Cc1ccc2[nH]c3c(C)c4c(c(C)c3c2c1)CN(C)C=C4`, the TGI in assay [1] stood at 2.13 µM; in assay [2], 22 µM; in assay [3], 3.73 µM; in assay [4] it was 23.5 µM; in assay [5], 6.76 µM; in assay [6], 0.682 µM. In addition, the values for the TGI in assay [7] and in assay [8] were 7.04 µM and 1.4 µM, respectively. In addition, the GI50 in assay [2] is 2.33 µM.

For the compound `Cc1c(-c2ccccc2)c(=O)oc2ccc(Cl)cc12`, the TGI in assay [1], in assay [2], in assay [3], in assay [4], in assay [5] and in assay [6] was more than 100 µM each time. The TGI in assay [7] and in assay [8] was more than 100 µM throughout.

In the case of `CC1CN(c2ccc(Cl)cc2)CC(C)(C)OC(=O)O1` (stereo not given), the TGI in assay [1], in assay [2], in assay [3], in assay [4], in assay [5] and in assay [6] was more than 100 µM throughout. Further, the TGI in assay [7] and in assay [8] was more than 100 µM throughout.

As for `O=c1c(-c2ccccc2)c2oc(c1-c1ccccc1)CS(=O)(=O)CCC2`, the TGI was 80.9 µM in assay [1]; more than 100 µM in assay [2]; more than 100 µM in assay [3]; more than 100 µM in assay [4]; 44.2 µM in assay [6]; more than 100 µM in assay [7]. For the same compound, the TGI in assay [8] stood at 42.1 µM.

Turning to `CCOC(=O)C[C@@H](C)[C@]1(C(=O)OC)CCCC1=O`, the TGI in assay [1], in assay [2], in assay [3], in assay [4], in assay [5] and in assay [6] was more than 100 µM throughout. Further, the TGI in assay [7] is more than 100 µM; in assay [8], more than 84.2 µM.

For `COCc1c(CO)cnc(C)c1OC1OC(CO)C(O)C(O)C1O` (stereo not given), the TGI in assay [1], in assay [3], in assay [5], in assay [6] and in assay [7] was more than 100 µM each time.

For `COc1cccc(NC(=O)C(C)(C)C)c1C=O`, the TGI in assay [1], in assay [2], in assay [3], in assay [4], in assay [5] and in assay [6] was more than 100 µM throughout. Besides, the TGI in assay [7] and in assay [8] was more than 100 µM in each case.

Turning to `CCCCCCCCCCCCCCCCOCC(CN(C)CCN(C)C)OCCCCCCCCCCCCCCCC` (stereo not given), the TGI in assay [1], in assay [2], in assay [3], in assay [4], in assay [5] and in assay [6] was more than 100 µM each time. Further, the TGI in assay [7] and in assay [8] was more than 100 µM each time.

As for `Cc1ccc(-n2c3nc(=O)n(C)c(=O)c-3nc3ccccc32)cc1`, the TGI worked out at 68.7 µM in assay [1]; 49.4 µM in assay [2]; 46.5 µM in assay [3]; 35.8 µM in assay [4]; 28.5 µM in assay [5]; 34 µM in assay [6]. For the same compound, the TGI was more than 100 µM in assay [7] and 14.8 µM in assay [8].

In the case of `CC(=O)NC(CCCCN(Cc1ccccc1)C(=O)NCCCl)C(=O)NCc1ccccc1` (stereo not given), the TGI in assay [1], in assay [2], in assay [3], in assay [4], in assay [5] and in assay [6] was more than 100 µM each time. In assay [8], this compound registered a TGI of more than 100 µM.

Regarding `O=C1OC(c2ccccc2)=N/C1=C\c1ccc2ccccc2c1`, the TGI in assay [2], in assay [5], in assay [6], in assay [7] and in assay [8] was more than 100 µM each time.

In the case of `C=CCCCn1ccc2ccccc21`, the TGI in assay [1], in assay [2], in assay [3], in assay [4], in assay [6] and in assay [7] was more than 100 µM each time. In addition, the TGI in assay [8] was more than 100 µM.

As to `O=C(O)C1=C(C(=O)Nc2ccccc2)C2C=CC1C2` (stereo not given), the TGI in assay [2], in assay [3], in assay [4], in assay [5], in assay [6] and in assay [7] was more than 100 µM each time. The compound also registered a TGI in assay [8] of more than 100 µM.
